From patent US20020182239A1, “Composition and method for inhibiting polar capsule discharge and protecting a subject from nematocyst sting” (priority 2002, published 2002)
Like-named read-outs stand apart in the source and are kept apart here.

Key:
[1] = test system: isolated nematocyst capsules; settings: 50 mM CaCl2; cited from earlier work
[2] = test system: jellyfish Rhopilema nomadica nematocysts

SMILES	discharge of isolated nematocyst capsules [1]	nematocysts in skin treated with ointment base alone relative to skin treated with formalin ([2]; 0.1% formalin)	decrease in nematocysts skin penetration ([2]; 0.1% formalin in ointment base vs ointment base alone)	nematocyst discharge and skin penetration ([2]; formalin concentration 0.01%)	nematocyst discharge and skin penetration ([2]; formalin concentration 0.05%)	average number of nematocysts counted on a skin sample ([2]; ointment base containing 0.1% formalin, human skin sections, tentacles 10 seconds)
[Ca+2].[Cl-].[Cl-] [CaCl2]	do not discharge					
C=O [formalin]		more than 5 times	over 80%	reduces nematocyst discharge and skin penetration	reduces nematocyst discharge and skin penetration	5+/−4 nematocysts
